Reference: the NIST ThermoML archive (doi:10.1016/j.tca.2013.08.016)

Experiments:
[1] = refractive index (Na D-line) (dimensionless); φn = volume fraction of the nth substance listed; details: 101 kPa, Liquid, Standard Abbe refractometry
[2] = refractive index (Na D-line) (dimensionless); details: 101.33 kPa, Liquid, Standard Abbe refractometry

CCCC[n+]1ccccc1.F[B-](F)(F)F [1-butylpyridinium tetrafluoroborate] + CCO
[1]
Details | refractive index
303.15 K, φ1 = 0.0806 | 1.36595
303.15 K, φ1 = 0.1412 | 1.37218
303.15 K, φ1 = 0.2622 | 1.3839
303.15 K, φ1 = 0.3554 | 1.39236
303.15 K, φ1 = 0.4323 | 1.39905
303.15 K, φ1 = 0.561 | 1.40993
303.15 K, φ1 = 0.6685 | 1.41861
303.15 K, φ1 = 0.7512 | 1.42527
303.15 K, φ1 = 0.8213 | 1.43076
303.15 K, φ1 = 0.8742 | 1.43497
303.15 K, φ1 = 0.9217 | 1.43861
303.15 K, φ1 = 0.9612 | 1.44158
303.15 K, φ1 = 1 | 1.44454
313.15 K, φ1 = 0.0802 | 1.36207
313.15 K, φ1 = 0.1405 | 1.36844
313.15 K, φ1 = 0.2611 | 1.38045
313.15 K, φ1 = 0.3541 | 1.389
313.15 K, φ1 = 0.4308 | 1.39575
313.15 K, φ1 = 0.5595 | 1.40676
313.15 K, φ1 = 0.6672 | 1.4156
313.15 K, φ1 = 0.7501 | 1.42236
313.15 K, φ1 = 0.8205 | 1.42796
313.15 K, φ1 = 0.8736 | 1.43225
313.15 K, φ1 = 0.9213 | 1.43596
313.15 K, φ1 = 0.961 | 1.43898
313.15 K, φ1 = 1 | 1.4419
323.15 K, φ1 = 0.0798 | 1.35794
323.15 K, φ1 = 0.1398 | 1.3646
323.15 K, φ1 = 0.26 | 1.37704
323.15 K, φ1 = 0.3528 | 1.38573
323.15 K, φ1 = 0.4294 | 1.39254
323.15 K, φ1 = 0.5581 | 1.40354
323.15 K, φ1 = 0.6659 | 1.41255
323.15 K, φ1 = 0.749 | 1.41938
323.15 K, φ1 = 0.8196 | 1.42508
323.15 K, φ1 = 0.8729 | 1.42947
323.15 K, φ1 = 0.9209 | 1.43328
323.15 K, φ1 = 0.9607 | 1.43633
323.15 K, φ1 = 1 | 1.43924

CCCC[n+]1ccccc1.F[B-](F)(F)F [1-butylpyridinium tetrafluoroborate] + CO
[1]
Details | refractive index
293.15 K, φ1 = 0.0747 | 1.33926
293.15 K, φ1 = 0.1041 | 1.34327
293.15 K, φ1 = 0.2013 | 1.35648
293.15 K, φ1 = 0.3315 | 1.37286
293.15 K, φ1 = 0.4125 | 1.38271
293.15 K, φ1 = 0.5222 | 1.39563
293.15 K, φ1 = 0.6527 | 1.41047
293.15 K, φ1 = 0.7475 | 1.42106
293.15 K, φ1 = 0.8152 | 1.42843
293.15 K, φ1 = 0.8666 | 1.43377
293.15 K, φ1 = 0.9113 | 1.43844
293.15 K, φ1 = 0.9687 | 1.44425
293.15 K, φ1 = 1 | 1.44719
303.15 K, φ1 = 0.0742 | 1.3354
303.15 K, φ1 = 0.1035 | 1.33949
303.15 K, φ1 = 0.2002 | 1.35293
303.15 K, φ1 = 0.3301 | 1.36955
303.15 K, φ1 = 0.411 | 1.37949
303.15 K, φ1 = 0.5206 | 1.39258
303.15 K, φ1 = 0.6513 | 1.40757
303.15 K, φ1 = 0.7463 | 1.41824
303.15 K, φ1 = 0.8142 | 1.42561
303.15 K, φ1 = 0.8658 | 1.43105
303.15 K, φ1 = 0.9108 | 1.43576
303.15 K, φ1 = 0.9685 | 1.4416
303.15 K, φ1 = 1 | 1.44454
313.15 K, φ1 = 0.0737 | 1.33144
313.15 K, φ1 = 0.1028 | 1.33587
313.15 K, φ1 = 0.1991 | 1.34941
313.15 K, φ1 = 0.3286 | 1.36646
313.15 K, φ1 = 0.4096 | 1.3765
313.15 K, φ1 = 0.5189 | 1.38958
313.15 K, φ1 = 0.6498 | 1.40471
313.15 K, φ1 = 0.745 | 1.41542
313.15 K, φ1 = 0.8132 | 1.42273
313.15 K, φ1 = 0.865 | 1.42832
313.15 K, φ1 = 0.9103 | 1.433
313.15 K, φ1 = 0.9683 | 1.43897
313.15 K, φ1 = 1 | 1.4419
323.15 K, φ1 = 0.0732 | 1.32837
323.15 K, φ1 = 0.1022 | 1.33278
323.15 K, φ1 = 0.1981 | 1.3469
323.15 K, φ1 = 0.3271 | 1.3641
323.15 K, φ1 = 0.408 | 1.37436
323.15 K, φ1 = 0.5172 | 1.38733
323.15 K, φ1 = 0.6482 | 1.40238
323.15 K, φ1 = 0.7438 | 1.41283
323.15 K, φ1 = 0.8122 | 1.42002
323.15 K, φ1 = 0.8642 | 1.42546
323.15 K, φ1 = 0.9097 | 1.43029
323.15 K, φ1 = 0.9681 | 1.43614
323.15 K, φ1 = 1 | 1.43924

CCO [ethanol]
[2]
Details | refractive index
293.15 K | 1.36144
303.15 K | 1.35702
313.15 K | 1.3527
323.15 K | 1.34837

CCO [ethanol] + CCCC[n+]1ccc(C)cc1.F[B-](F)(F)F
[1], φ2 = 0
Details | refractive index
293.15 K | 1.36144
303.15 K | 1.35702
313.15 K | 1.3527
323.15 K | 1.34837

CCO [ethanol] + CCCC[n+]1cccc(C)c1.F[B-](F)(F)F
[1], φ2 = 0
Details | refractive index
293.15 K | 1.36144
303.15 K | 1.35702
313.15 K | 1.3527
323.15 K | 1.34837

CCO [ethanol] + CCCC[n+]1ccccc1.F[B-](F)(F)F
[1], φ2 = 0
Details | refractive index
303.15 K | 1.35702
313.15 K | 1.3527
323.15 K | 1.34837

CO [methanol]
[2]
Details | refractive index
293.15 K | 1.32843
303.15 K | 1.32433
313.15 K | 1.32015
323.15 K | 1.3167

CO [methanol] + CCCC[n+]1ccc(C)cc1.F[B-](F)(F)F
[1], φ2 = 0
Details | refractive index
293.15 K | 1.32843
303.15 K | 1.32433
313.15 K | 1.32015
323.15 K | 1.3167

CO [methanol] + CCCC[n+]1cccc(C)c1.F[B-](F)(F)F
[1], φ2 = 0
Details | refractive index
293.15 K | 1.32843
303.15 K | 1.32433
313.15 K | 1.32015
323.15 K | 1.3167

CO [methanol] + CCCC[n+]1ccccc1.F[B-](F)(F)F
[1], φ2 = 0
Details | refractive index
293.15 K | 1.32843
303.15 K | 1.32433
313.15 K | 1.32015
323.15 K | 1.3167
